# Source: patent US10603335B2, “Cancer treatment combination compositions, methods and uses” (Board of Supervisors of Louisiana State University and …, priority 2016, dated 2020)
# Experiments:
# [1] = test system: XIAP, cIAP1 and cIAP2 mRNA in Panc-1 cells; test: Quantitative PCR of inhibitors of apoptosis, Panc-1; type: cell-based; settings: 50 uM, 24 h post-treatment, relative to DMSO, GAPDH reference
# Experimental: mRNA levels of XIAP, c-IAP1 and c-IAP2 were determined by quantitative real-time PCR using the SYBR Green Real-Time PCR Master Mix form ThermoFisher. Thermal cycling was carried out using the CFX system from BioRad under the following conditions: 95° C. for 10 min and 40 cycles at 95° C. for 15 s and 55° C. for 60 s. mRNA expression for any given gene is represented as comparative to the DMSO-treated cells. GAPDH was used as the housekeeping gene of reference.
# GAPDH was used as a reference. Results presented in FIG. 12A (XIAP relative mRNA levels), FIG. 12B (cIAP1 relative mRNA levels), FIG. 12C (cIAP2 relative mRNA levels).
# [2] = test system: cleaved PARP, XIAP and cIAP2 in MiaPaca-2 cells; test: Western blot of apoptosis markers and inhibitors of apoptosis, MiaPaca-2; type: cell-based, human; settings: for XIAP and c-IAP2 protein levels: 24 h
# Experimental: (§1) Pancreatic cells were collected after trypsinization and seeded in 12-well plates for 24 h before treatments. Treatments were performed as described in the Figure legends. Following treatment, whole cell lysates were collected in Laemmli buffer and analyzed by Western blot. The following primary antibodies were used: XIAP, c-IAP2, cleaved PARP, Caspase-3 (all from Cell Signaling), actin (Santa Cruz) and LHRHR (Abcam).
# (§2) Western blot analysis. Actin, GAPDH and Ponceau staining were used as loading controls. Gemcitabine was diluted in water. Curcumin and LHRH-curcumin were diluted in DMSO. Cells were treated as follows:
# (§3) Western blot analysis. Actin, GAPDH and Ponceau staining were used as loading controls. Gemcitabine was diluted in water. Curcumin and LHRH-curcumin were diluted in DMSO. The cells were treated as follows:
# (§4) Western blot analysis. Actin was used as loading control. Both gemcitabine and LHRH-curcumin were diluted in water.
# [3] = test system: cleaved PARP, XIAP and cIAP2 in BxPC-3 cells; test: Western blot of apoptosis markers and inhibitors of apoptosis, BxPC-3; type: cell-based; settings: for XIAP and c-IAP2 protein levels: 24 h
# Experimental: as §1, §2
# (§5) Western blot analysis. Actin, GAPDH and Ponceau staining were used as loading controls. Gemcitabine was diluted in water. Curcumin and LHRH-curcumin were diluted in DMSO.
# [4] = test system: cleaved PARP, XIAP and cIAP2 in AsPC-1 cells; test: Western blot of apoptosis markers and inhibitors of apoptosis, AsPC-1; type: cell-based; settings: for XIAP and c-IAP2 protein levels: 24 h
# Experimental: as §1, §2, §5
# [5] = test system: cleaved PARP, XIAP and cIAP2 in Panc-1 cells; test: Western blot of apoptosis markers and inhibitors of apoptosis, Panc-1; type: cell-based; settings: for XIAP and c-IAP2 protein levels: 24 h
# Experimental: as §1, §2, §3, §4
# Panc-1 cells spheroids = test: 3D spheroid growth (IncuCyte ZOOM), Panc-1; type: cell-based; settings: LHRH 30 μM, LHRH-curcumin 30 μM
# Experimental: A protocol that enables the growth of identical size single cancer cell spheroids in Matrigel in 96 well plates has been developed.
# Panc-1 and Mia-Paca-2 cells were grown in 10% FBS DMEM. Cells were collected after trypsinization and resuspended in phenol-red free DMEM with 10% FBS. Cells were labeled with CellTracker Red (Life Techmologies) for 5 minutes. After labeling cells were washed with PBS and transfer into 96-well Corning 7007 ULA round bottom plates at 1,000 cells/well in 100 μl phenol-red free media with 10% FBS and 5% Matrigel. […] Spheroids were grown at 37° C. and 5% CO2 in IncuCyte ZOOM (Essen Bioscience). Images were acquired every 4 h for a period of 120 h post-treatment and software analysis was design to identify the red object in the well. The data were expressed as fold increase in spheroids size at the end of the treatment using the “average red object area in the well” as determined by the IncuCyte software analysis. Reproducibility was confirmed in three independent experiments. Spheroids grew at a uniform rate (FIG. 1).
# [6] = test system: non-target control (NT) Panc-1 spheroides; test: 3D spheroid growth, non-target control (NT) Panc-1; type: cell-based; settings: 30 μM
# [7] = 50 uM in the presence of gemcitabine (5 uM)
# [8] = curcumin, LHRH-curcumin 50 uM and 100 uM alone, gemcitabine alone
# [9] = 24 h post-treatment, curcumin, LHRH-curcumin 10-100 uM, gemcitabine 1-20 uM
Compound,"mRNA levels of XIAP, cIAP1 and c-IAP2 [1]","XIAP and c-IAP2 protein levels [2, 7]","XIAP and c-IAP2 protein levels [2, 8]","apoptosis marker cleaved PARP [2, 9]","XIAP and c-IAP2 protein levels [3, 7]","XIAP and c-IAP2 protein levels [3, 8]","apoptosis marker cleaved PARP [3, 9]","XIAP and c-IAP2 protein levels [4, 7]","XIAP and c-IAP2 protein levels [4, 8]","apoptosis marker cleaved PARP [4, 9]","XIAP and c-IAP2 protein levels [5, 7]","XIAP and c-IAP2 protein levels [5, 8]","apoptosis marker cleaved PARP [5, 9]",spheroids growth (Panc-1 cells spheroids),spheroids growth [6]
COc1cc(/C=C/C(=O)CC(=O)/C=C/c2ccc(O)c(OC)c2)ccc1O [curcumin],down-regulated,down-regulated,down-regulated,initiate apoptosis as illustrated by the presence of cleaved PARP,down-regulated,down-regulated,initiate apoptosis as illustrated by the presence of cleaved PARP,down-regulated,down-regulated,initiate apoptosis as illustrated by the presence of cleaved PARP,down-regulated,down-regulated,initiate apoptosis as illustrated by the presence of cleaved PARP,,
"luteinizing hormone releasing hormone (EHWSYGLRPG) [LHRH, Gonadotropin-releasing hormone (GnRH, also called luteinizing hormone releasing hormone or LHRH), reference compound]",,,,,,,,,,,,,,inhibitory effect on spheroids growth,inhibitory effect on NT Panc-1 spheroids growth
